Each structure is given as a SMILES string.

Format in all cases: cell-based
Experiment [1] concerns the target GluN2B-containing NMDA receptors (Homo sapiens, UniProt Q13224). Description: Two-electrode voltage-clamp recordings from Xenopus laevis oocytes, GluN2B. The following applies: for I10 μM/ICONTROL (mean ± SEM, %) Glu N2B: 10 μM test compound with glutamate 100 μM and glycine 30 μM, Tables 1-5; for I10 μM/ICONTROL (mean ± SEM, %) Glu N2B / maximal potentiation Glu N2B: percent of response without compound; for EC50: read-out: EC50 Glu N2B. How it is done: (§1) Xenopus laevis oocytes were injected with cRNA encoding the NMDA receptor subunits. Two to seven days after injection, two-electrode voltage-clamp recordings were performed. Extracellular solutions were made from a solutions containing (in mM) 90 NaCl, 3 KCl, 10 HEPES, 0.5 BaCl2, 0.01 EDTA (pH 7.4 with NaOH). Voltage and current electrodes were filled with 0.3 M and 3.0 M KCl, respectively.
(§2) Potency was determined by adding increasing concentrations of test compound to saturating concentrations of glutamate (100 μM) and glycine (30 μM), and the response amplitude measured. The response in the presence of each concentration of test compound plus agonists was expressed as a percent of the response in the absence of test compound.
On the technique in general: In two-electrode clamp one electrode senses voltage and the other passes current.

Experiment [2] has as its target GluN2D-containing NMDA receptors (Homo sapiens, UniProt O15399). Description: Two-electrode voltage-clamp recordings from Xenopus laevis oocytes, GluN2D. As to conditions: for I10 μM/ICONTROL (mean ± SEM, %) Glu N2D: 10 μM test compound with glutamate 100 μM and glycine 30 μM, Tables 1-5; for I10 μM/ICONTROL (mean ± SEM, %) Glu N2D / maximal potentiation Glu N2D: percent of response without compound; for EC50: read-out: EC50 Glu N2D. On the procedure:
as §1, §2

Experiment [3] addresses GluN2C-containing NMDA receptors (Homo sapiens, UniProt Q14957). Description: Two-electrode voltage-clamp recordings from Xenopus laevis oocytes, GluN2C. As to conditions: for I10 μM/ICONTROL (mean ± SEM, %) Glu N2C: 10 μM test compound with glutamate 100 μM and glycine 30 μM, Tables 1-5; for I10 μM/ICONTROL (mean ± SEM, %) Glu N2C / maximal potentiation Glu N2C: percent of response without compound; for EC50: read-out: EC50 Glu N2C. How it is done:
as §1, §2

[4] abbreviates: Table 2, in brackets below IC50.
Setting [5] is: Table 1, glutamate 100 μM, glycine 30 μM, Hill fit.
Where [6] appears, read: Table 1, in brackets after EC50.

GluN2D-containing NMDA receptors, sequence (O15399 28-1336, other chains not shown): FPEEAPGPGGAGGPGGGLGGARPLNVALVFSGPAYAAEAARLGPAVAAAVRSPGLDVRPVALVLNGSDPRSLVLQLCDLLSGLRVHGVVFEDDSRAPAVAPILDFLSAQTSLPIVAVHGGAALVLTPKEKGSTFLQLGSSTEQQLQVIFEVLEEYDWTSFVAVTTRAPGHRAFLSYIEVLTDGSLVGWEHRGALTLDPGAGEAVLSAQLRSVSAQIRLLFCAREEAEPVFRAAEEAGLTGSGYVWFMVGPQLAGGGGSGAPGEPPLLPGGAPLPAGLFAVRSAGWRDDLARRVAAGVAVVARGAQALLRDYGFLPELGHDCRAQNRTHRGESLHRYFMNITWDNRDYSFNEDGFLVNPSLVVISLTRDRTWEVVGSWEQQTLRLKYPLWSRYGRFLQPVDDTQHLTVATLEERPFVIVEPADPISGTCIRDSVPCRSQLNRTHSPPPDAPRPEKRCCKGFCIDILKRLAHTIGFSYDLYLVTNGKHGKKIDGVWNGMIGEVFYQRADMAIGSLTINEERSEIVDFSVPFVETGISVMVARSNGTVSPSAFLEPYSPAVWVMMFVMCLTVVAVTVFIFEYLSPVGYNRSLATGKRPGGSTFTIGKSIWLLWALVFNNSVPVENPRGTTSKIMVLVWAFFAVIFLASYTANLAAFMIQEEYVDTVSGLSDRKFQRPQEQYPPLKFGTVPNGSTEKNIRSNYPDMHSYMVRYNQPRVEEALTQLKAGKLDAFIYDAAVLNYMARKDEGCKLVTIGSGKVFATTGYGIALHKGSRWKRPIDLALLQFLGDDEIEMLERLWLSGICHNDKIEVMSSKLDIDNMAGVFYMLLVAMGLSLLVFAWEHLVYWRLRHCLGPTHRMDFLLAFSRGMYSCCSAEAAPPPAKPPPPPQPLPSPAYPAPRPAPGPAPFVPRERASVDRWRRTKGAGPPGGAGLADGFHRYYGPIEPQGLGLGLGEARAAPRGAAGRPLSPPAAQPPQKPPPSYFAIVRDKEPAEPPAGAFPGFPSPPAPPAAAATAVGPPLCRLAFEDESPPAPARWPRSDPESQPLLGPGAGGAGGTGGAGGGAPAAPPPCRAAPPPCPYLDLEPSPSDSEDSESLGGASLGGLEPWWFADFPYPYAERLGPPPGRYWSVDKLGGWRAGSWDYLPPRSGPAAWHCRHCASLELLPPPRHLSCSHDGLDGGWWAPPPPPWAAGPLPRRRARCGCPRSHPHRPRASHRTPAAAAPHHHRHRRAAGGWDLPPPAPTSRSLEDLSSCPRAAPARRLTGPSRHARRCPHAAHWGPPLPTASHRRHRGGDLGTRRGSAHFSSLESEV
GluN2C-containing NMDA receptors, sequence (Q14957 20-1233, other chains not shown): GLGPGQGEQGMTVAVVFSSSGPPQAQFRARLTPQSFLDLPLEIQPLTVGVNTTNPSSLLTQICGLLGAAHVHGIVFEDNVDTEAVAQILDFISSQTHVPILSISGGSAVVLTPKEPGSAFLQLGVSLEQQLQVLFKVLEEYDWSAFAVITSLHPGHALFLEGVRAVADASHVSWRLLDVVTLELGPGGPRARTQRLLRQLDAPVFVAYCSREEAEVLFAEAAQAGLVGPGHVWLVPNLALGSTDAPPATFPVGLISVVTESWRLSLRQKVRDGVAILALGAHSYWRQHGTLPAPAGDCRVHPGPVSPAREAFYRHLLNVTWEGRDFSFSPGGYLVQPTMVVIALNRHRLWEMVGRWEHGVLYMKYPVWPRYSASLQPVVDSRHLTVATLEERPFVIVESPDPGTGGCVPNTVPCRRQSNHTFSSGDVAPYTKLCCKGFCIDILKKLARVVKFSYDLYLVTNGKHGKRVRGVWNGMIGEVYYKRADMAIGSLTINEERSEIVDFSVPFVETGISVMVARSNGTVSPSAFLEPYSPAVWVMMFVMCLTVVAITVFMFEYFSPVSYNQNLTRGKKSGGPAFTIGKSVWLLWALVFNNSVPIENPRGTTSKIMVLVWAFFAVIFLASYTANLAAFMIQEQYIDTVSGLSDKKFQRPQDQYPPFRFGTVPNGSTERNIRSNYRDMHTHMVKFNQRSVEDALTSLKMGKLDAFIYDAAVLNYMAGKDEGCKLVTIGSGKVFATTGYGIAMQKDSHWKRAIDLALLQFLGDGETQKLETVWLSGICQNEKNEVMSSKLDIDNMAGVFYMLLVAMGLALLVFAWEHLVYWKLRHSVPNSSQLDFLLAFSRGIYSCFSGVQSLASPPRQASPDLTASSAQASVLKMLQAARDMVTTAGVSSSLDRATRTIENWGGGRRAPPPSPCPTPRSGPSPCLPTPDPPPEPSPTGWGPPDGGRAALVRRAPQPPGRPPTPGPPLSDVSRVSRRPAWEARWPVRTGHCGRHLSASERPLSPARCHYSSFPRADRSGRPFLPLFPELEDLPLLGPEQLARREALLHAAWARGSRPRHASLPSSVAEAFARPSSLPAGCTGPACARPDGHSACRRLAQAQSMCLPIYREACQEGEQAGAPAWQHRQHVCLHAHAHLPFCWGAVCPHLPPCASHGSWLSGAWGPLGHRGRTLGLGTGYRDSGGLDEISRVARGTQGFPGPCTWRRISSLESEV
GluN2B-containing NMDA receptors, sequence (Q13224 27-1484, other chains not shown): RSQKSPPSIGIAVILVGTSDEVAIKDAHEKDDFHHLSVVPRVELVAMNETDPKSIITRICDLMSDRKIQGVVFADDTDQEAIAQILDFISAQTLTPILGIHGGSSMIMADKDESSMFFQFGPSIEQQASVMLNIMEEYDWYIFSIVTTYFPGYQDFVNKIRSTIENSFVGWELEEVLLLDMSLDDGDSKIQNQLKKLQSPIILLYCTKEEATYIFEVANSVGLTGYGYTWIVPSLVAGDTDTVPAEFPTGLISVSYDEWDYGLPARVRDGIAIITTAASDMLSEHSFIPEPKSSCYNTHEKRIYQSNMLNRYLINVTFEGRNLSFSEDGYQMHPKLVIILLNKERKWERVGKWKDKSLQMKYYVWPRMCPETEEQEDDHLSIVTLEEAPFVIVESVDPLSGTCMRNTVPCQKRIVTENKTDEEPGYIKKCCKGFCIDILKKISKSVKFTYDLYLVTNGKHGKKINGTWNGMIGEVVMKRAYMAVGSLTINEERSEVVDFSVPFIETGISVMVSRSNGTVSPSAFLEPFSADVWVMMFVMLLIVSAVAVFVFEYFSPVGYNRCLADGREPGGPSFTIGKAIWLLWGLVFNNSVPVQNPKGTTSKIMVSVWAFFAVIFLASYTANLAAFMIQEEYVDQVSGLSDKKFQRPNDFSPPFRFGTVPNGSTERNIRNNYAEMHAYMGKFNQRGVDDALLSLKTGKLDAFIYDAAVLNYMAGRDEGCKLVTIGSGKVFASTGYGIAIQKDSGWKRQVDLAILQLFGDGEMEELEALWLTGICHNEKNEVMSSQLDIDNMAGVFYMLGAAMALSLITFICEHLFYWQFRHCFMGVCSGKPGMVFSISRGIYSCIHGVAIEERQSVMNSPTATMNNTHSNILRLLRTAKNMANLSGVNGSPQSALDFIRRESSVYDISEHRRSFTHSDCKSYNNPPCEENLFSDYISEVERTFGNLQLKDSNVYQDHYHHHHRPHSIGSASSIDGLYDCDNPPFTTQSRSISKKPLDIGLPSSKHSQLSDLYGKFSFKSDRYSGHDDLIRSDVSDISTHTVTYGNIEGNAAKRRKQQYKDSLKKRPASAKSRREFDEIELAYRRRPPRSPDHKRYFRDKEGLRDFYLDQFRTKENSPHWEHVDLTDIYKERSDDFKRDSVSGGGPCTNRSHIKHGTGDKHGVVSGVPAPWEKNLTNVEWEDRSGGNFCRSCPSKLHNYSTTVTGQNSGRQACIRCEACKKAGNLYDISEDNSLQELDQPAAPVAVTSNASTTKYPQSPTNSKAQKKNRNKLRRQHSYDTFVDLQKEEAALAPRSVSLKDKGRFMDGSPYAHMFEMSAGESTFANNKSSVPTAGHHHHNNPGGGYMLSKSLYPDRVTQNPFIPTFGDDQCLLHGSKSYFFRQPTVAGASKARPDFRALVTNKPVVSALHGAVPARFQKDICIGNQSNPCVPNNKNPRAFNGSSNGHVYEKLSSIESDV

Take `Cc1sc2ncn(CC(=O)N3CCCC3)c(=O)c2c1-c1cccc(C#N)c1` [3-CN—Ph / Me]: in experiment [1], the “I10 μM/ICONTROL (mean ± SEM, %) Glu N2B” value is 147 ± 4.1%. Moreover, in experiment [2], the “I10 μM/ICONTROL (mean ± SEM, %) Glu N2D” value was 177 ± 6.2%. In addition, the “I10 μM/ICONTROL (mean ± SEM, %) Glu N2C” value in experiment [3] is reported as 190 ± 4.2%.

On to `Cc1sc2ncn(CC(=O)c3ccccc3)c(=O)c2c1-c1cccc(I)c1` [1 / 3-I—Ph / Me / Ph], for which the “I10 μM/ICONTROL (mean ± SEM, %) Glu N2B” value in experiment [1] stood at 139 ± 3.9%. The half-inhibitory concentration (IC50) in experiment [1] (Table 2, glutamate 100 μM, glycine 30 μM, Hill fit, read-out: IC50 Glu N2B) is 7.9 µM; in experiment [2] (Table 2, glutamate 100 μM, glycine 30 μM, Hill fit, read-out: IC50 Glu N2D) it was 41 µM; in experiment [3] (Table 2, glutamate 100 μM, glycine 30 μM, Hill fit, read-out: IC50 Glu N2C), 15 µM. Also, the “maximal potentiation Glu N2B” value in experiment [1] (setting [4]) is given as “(169) %”. In experiment [2], the “I10 μM/ICONTROL (mean ± SEM, %) Glu N2D” value is 133 ± 3.1%. For the same molecule, the “maximal potentiation Glu N2D” value in experiment [2] (setting [4]) is reported as “(305) %”. Also, in experiment [3], the “I10 μM/ICONTROL (mean ± SEM, %) Glu N2C” value is listed as 161 ± 10.9%. Also, the “maximal potentiation Glu N2C” value in experiment [3] (setting [4]) is “(273) %”.

With `Cc1sc2ncn(CC(=O)N3CCCC3)c(=O)c2c1-c1ccc(Cl)cc1` [4-Cl—Ph / Me], the values for the half-maximal effective concentration (EC50) in experiment [1] (setting [5]), in experiment [2] (setting [5]) and in experiment [3] (setting [5]) were 11 µM, 23 µM and 15 µM, respectively. In addition, in experiment [1] (setting [6]), the “maximal potentiation Glu N2B” value stood at 223%. Also, the “maximal potentiation Glu N2D” value in experiment [2] (setting [6]) is recorded as 381%. Moreover, the “maximal potentiation Glu N2C” value in experiment [3] (setting [6]) is 347%.

Consider `C#CCn1cnc2sc(C)c(-c3cccc(Cl)c3)c2c1=O` [—C≡CH], for which, in experiment [1], the “I10 μM/ICONTROL (mean ± SEM, %) Glu N2B” value was 116 ± 4.0%. Also, the “I10 μM/ICONTROL (mean ± SEM, %) Glu N2D” value in experiment [2] turned out to be 98 ± 4.3%. In experiment [3], the “I10 μM/ICONTROL (mean ± SEM, %) Glu N2C” value was 98 ± 7.9%.

With `COc1ccc(C(=O)Cn2cnc3sc(C)c(-c4cccc(I)c4)c3c2=O)cc1` [1 / 3-I—Ph / Me / 4-OMe—Ph], in experiment [1], the “I10 μM/ICONTROL (mean ± SEM, %) Glu N2B” value was determined as 84 ± 5.2%. Also, the “I10 μM/ICONTROL (mean ± SEM, %) Glu N2D” value in experiment [2] is reported as 94 ± 1.1%. Besides, the “I10 μM/ICONTROL (mean ± SEM, %) Glu N2C” value in experiment [3] stood at 94 ± 1.94%.

As to `Cc1ccc(-c2c(C)sc3ncn(CC(=O)N4CCCC4)c(=O)c23)cc1C` [3,4-Me—Ph / Me], the figures for the EC50 in experiment [1] (setting [5]), in experiment [2] (setting [5]) and in experiment [3] (setting [5]) were 7.9 µM, 18 µM and 27 µM, respectively. Further, the “maximal potentiation Glu N2B” value in experiment [1] (setting [6]) is on record as 192%. The “maximal potentiation Glu N2D” value in experiment [2] (setting [6]) was determined as 229%. Moreover, the “maximal potentiation Glu N2C” value in experiment [3] (setting [6]) is on record as 267%.

As to `Cc1sc2ncn(CC(=O)N3CCCC3)c(=O)c2c1-c1ccc2c(c1)CCC2` [3,4-(CH2)3—Ph / Me], the “I10 μM/ICONTROL (mean ± SEM, %) Glu N2B” value in experiment [1] came out at 176 ± 6.2%. For the same molecule, the EC50 in experiment [1] (setting [5]) was 11.5 µM; in experiment [2] (setting [5]), 48 µM; in experiment [3] (setting [5]), 26 µM. For the same molecule, the “maximal potentiation Glu N2B” value in experiment [1] (setting [6]) was 275%. The “I10 μM/ICONTROL (mean ± SEM, %) Glu N2D” value in experiment [2] came to 165 ± 3.4%. Besides, the “maximal potentiation Glu N2D” value in experiment [2] (setting [6]) worked out at 580%. The “I10 μM/ICONTROL (mean ± SEM, %) Glu N2C” value in experiment [3] is given as 185 ± 11.4%. Besides, the “maximal potentiation Glu N2C” value in experiment [3] (setting [6]) was 475%.

`Cc1sc2ncn(CCC(=O)O)c(=O)c2c1-c1cccc(Cl)c1` [2 / 3-Cl—Ph / Me / OH]: the “I10 μM/ICONTROL (mean ± SEM, %) Glu N2B” value in experiment [1] is recorded as 99 ± 0.6%. Moreover, the “I10 μM/ICONTROL (mean ± SEM, %) Glu N2D” value in experiment [2] stood at 97 ± 1.1%. Also, in experiment [3], the “I10 μM/ICONTROL (mean ± SEM, %) Glu N2C” value was found to be 89 ± 6.2%.

For the molecule `Cc1ccc(-c2csc3ncn(CC(=O)N4CCCC4)c(=O)c23)cc1` [4-Me—Ph / H], the EC50 in experiment [1] (setting [5]) came to 109 µM; in experiment [2] (setting [5]), 170 µM; in experiment [3] (setting [5]), 207 µM. The “maximal potentiation Glu N2B” value in experiment [1] (setting [6]) was 226%. Further, the “maximal potentiation Glu N2D” value in experiment [2] (setting [6]) came out at 560%. For the same molecule, the “maximal potentiation Glu N2C” value in experiment [3] (setting [6]) is listed as 597%.

On to `Cc1sc2ncn(CC(=O)N3CCCC3)c(=O)c2c1-c1cccc(-n2ccnc2)c1` [3-N-imidazolyl-Ph / Me], for which the “I10 μM/ICONTROL (mean ± SEM, %) Glu N2B” value in experiment [1] is 120 ± 5.8%. Also, the figures for the EC50 in experiment [1] (setting [5]), in experiment [2] (setting [5]) and in experiment [3] (setting [5]) were 102 µM, 80 µM and 191 µM, respectively. For the same molecule, the “maximal potentiation Glu N2B” value in experiment [1] (setting [6]) stood at 261%. The “I10 μM/ICONTROL (mean ± SEM, %) Glu N2D” value in experiment [2] came to 99 ± 3.4%. The “maximal potentiation Glu N2D” value in experiment [2] (setting [6]) is recorded as 207%. Besides, the “I10 μM/ICONTROL (mean ± SEM, %) Glu N2C” value in experiment [3] was 112 ± 1.3%. Further, the “maximal potentiation Glu N2C” value in experiment [3] (setting [6]) was 453%.

Regarding `Cc1sc2ncn(CC(=O)N3CCCC3)c(=O)c2c1-c1ccc(N=[N+]=[N-])cc1` [4-N3—Ph / Me], in experiment [1], the “I10 μM/ICONTROL (mean ± SEM, %) Glu N2B” value is listed as 135 ± 5.5%. The EC50 in experiment [1] (setting [5]) came out at 54 µM; in experiment [2] (setting [5]) it was 50 µM; in experiment [3] (setting [5]), 54 µM. For the same molecule, the “maximal potentiation Glu N2B” value in experiment [1] (setting [6]) is 304%. In addition, in experiment [2], the “I10 μM/ICONTROL (mean ± SEM, %) Glu N2D” value is 128 ± 2.6%. Moreover, the “maximal potentiation Glu N2D” value in experiment [2] (setting [6]) is on record as 426%. Further, in experiment [3], the “I10 μM/ICONTROL (mean ± SEM, %) Glu N2C” value amounted to 146 ± 6.4%. For the same molecule, the “maximal potentiation Glu N2C” value in experiment [3] (setting [6]) is given as 485%.

A word on the IC50: it is the concentration that gives 50% inhibition. A word on the EC50: it is the concentration that produces a half-maximal response.

(Values after patent US12006328B2, “Thieno[2,3-d]pyrimidin-4-one derivatives as NMDAR modulators and uses related thereto” (Emory University, priority 2014, dated 2024).)
